Source: patent US12612386B2, “Heteroaryl-triazole compounds as pesticides” (Bayer Aktiengesellschaft, priority 2020, dated 2026)

Assays:
Format in all cases: in vivo
[1] = system: adult cat fleas (Ctenocephalides felis); assay: Ctenocephalides felis in-vitro contact test, adult cat flea; details: 5 μg/cm^2 (=500 g/ha), after 48 hours
Procedure: Ctenocephalides felis—In-Vitro Contact Tests Adult Cat Flea
(§1) 9 mg compound is solved in 1 mL acetone and diluted with acetone to the desired concentration. 250 μL of the test solution is filled in 25 mL glass test tubes and homogeneously distributed on the inner walls by rotation and tilting on a shaking device (2 h at 30 rpm). With a compound concentration of 900 ppm, an inner surface of 44.7 cm^2 and a homogeneous distribution, a dose of 5 μg/cm^2 is achieved.
(§2) After the solvent has evaporated, each test tube is filled with 5-10 adult cat fleas (Ctenocephalides felis), closed with a perforated lid and incubated in a lying position at room temperature and relative humidity. After 48 hours efficacy is determined. The fleas are patted on the ground of the tubes and are incubated on a heating plate at 45-50° C. for at most 5 minutes. Immotile or uncoordinated moving fleas, which are not able to escape the heat by climbing upwards, are marked as dead or moribund.
An efficacy of 100% means all fleas are dead or moribund; 0% means no fleas are dead or moribund.

[2] = system: adult brown dog ticks (Rhipicephalus sanguineus); assay: Rhipicephalus sanguineus in-vitro contact test, adult brown dog ticks; details: 48 h, read-out: efficacy (ticks dead or moribund)
Procedure: Rhipicephalus sanguineus—In-Vitro Contact Tests with Adult Brown Dog Ticks
as §1
as §2, with “brown dog ticks (Rhipicephalus sanguineus),” for “cat fleas (Ctenocephalides felis),”, “ticks” for “fleas”, “ticks,” for “fleas,”
An efficacy of 100% means all ticks are dead or moribund; 0% means no ticks are dead or moribund.

[3] = system: green peach aphid (Myzus persicae); assay: Myzus persicae spray test (MYZUPE); details: 120 h, 100 g/ha, after 5 days
Procedure, shortened: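 Percent aphid kill, with 0% meaning none killed, was read 5 days after spraying. The preparation (acetone–DMF solvent, water with 1000 ppm emulsifier) was applied to Brassica pekinensis leaf disks carrying mixed-instar green peach aphids.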

[4] = system: fall armyworm larvae (Spodoptera frugiperda); assay: whole plant or invertebrate; details: 168 h
Procedure, shortened: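 Percent kill of Spodoptera frugiperda caterpillars, read 7 days after infestation of dried, spray-treated Zea mays leaf pieces. Spray preparation: compound in acetone plus dimethylformamide, diluted with emulsifier-containing water.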

[5] = system: cattle tick larvae (Rhipicephalus microplus), strain Parkhurst, resistant against synthetic pyrethroids; assay: Rhipicephalus (Boophilus) microplus in-vitro contact test, larval cattle tick; details: 5 μg/cm^2 (=500 g/ha), after 48 hours
Procedure: Rhipicephalus (Boophilus) Microplus—In-Vitro Contact Tests Larval Cattle Tick (Strain Parkhurst, Resistant Against Synthetic Pyrethroids)
as §1
After the solvent has evaporated, each test tube is filled with 20-50 cattle tick larvae (Rhipicephalus microplus), closed with a perforated lid and incubated in a horizontal position at 85% relative humidity and 27° C. in an incubator. After 48 hours efficacy is determined. The larvae are patted on the ground of the tubes and negative geotactic behavior is recorded.
An efficacy of 100% means all larvae are dead or moribund; 0% means no larvae are dead or moribund.

[6] = system: larvae of the southern green stink bug (Nezara viridula); assay: whole plant or invertebrate; details: 96 h
Procedure, shortened: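 Percent mortality of southern green stink bug larvae was recorded at day 4, with 100% meaning all dead. The larvae were placed on barley sprayed with the test solution. That solution was prepared from acetone/dimethylformamide concentrate diluted in emulsifier-containing water (1000 ppm).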

[7] = system: larvae of the banded cucumber beetle (Diabrotica balteata); assay: Diabrotica balteata spray test; details: 168 h, 100 g/ha (=32 μg/well), after 7 days, read-out: efficacy (seedling growth)
Procedure, shortened: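 Efficacy is seedling survival after 7 days, where 0% means no seedlings grew and 100% means growth equal to untreated, uninfested controls. Wheat seedlings, germinated on agar for 1 day, were sprayed with the aqueous emulsifier dilution (acetone/DMF solvent) and then exposed to 10–20 banded cucumber beetle larvae.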

[8] = system: brown planthopper (Nilaparvata lugens); assay: Nilaparvata lugens spray test; details: 96 h
Procedure: Nilaparvata lugens—Spray Test
• Solvent: 78.0 parts by weight of acetone • 1.5 parts by weight of dimethylformamide • Emulsifier: alkylarylpolyglycol ether
To produce a suitable preparation of active compound, 1 part by weight of active compound is mixed with the stated amount of solvents and is diluted with water, containing an emulsifier concentration of 1000 ppm, to the desired concentration. Further test concentrations are prepared by dilution with emulsifier containing water.
Rice plants (Oryza sativa) are sprayed with a preparation of the active ingredient of the desired concentration and the plants are infested with the brown planthopper (Nilaparvata lugens).
After 4 days mortality in % is determined. 100% means all planthoppers have been killed and 0% means none of the planthoppers have been killed.

[9] = system: adult mosquitoes Aedes aegypti strain MONHEIM; assay: Aedes aegypti test (AEDSAE surface treatment & contact assay); details: surface concentration 20 mg/m^2, 30 min exposure, 24 hours after contact, read-out: efficacy (mortality)
Procedure: Aedes aegypti Test (AEDSAE Surface Treatment & Contact Assay)
Solvent: Aceton+2000 ppm rapeseed oil methyl ester (RME)
This solution is pipetted onto a glazed tile and after evaporation of the acetone, adult mosquitoes of the species Aedes aegypti strain MONHEIM are placed onto the dried surface. The exposure time is 30 minutes. Mortality in percent (%) is determined 24 hours after contact of the insects to the treated surface. 100% mortality means that all tested insects are dead, whereas 0% means that no insect died.

SMILES	efficacy (fleas dead or moribund) [1] [%]	pest or weed control at 5 µg/cm2, 500 g/ha [2] [%]	mortality at 100 g/ha [3] [%]	mortality at 100 g/ha [4] [%]	efficacy (larvae dead or moribund) [5] [%]	mortality at 500 g/ha [6] [%]	pest or weed control at 32 µg/disc, 100 g/ha [7] [%]	mortality at 500 g/ha [8] [%]	mortality at 20 mg/m2 [9] [%]
CNC(=O)c1cc(-n2nc(C)nc2[C@H](C)NC(=O)c2cc(Cl)cc(OC(F)(F)F)c2)ncn1 [I-87]	100	100	100	100	100	100	100	–	–
Cc1nc([C@H](C)NC(=O)c2cc(Br)cc(OC(F)(F)F)c2)n(-c2cc(C#N)ncn2)n1 [I-28]	–	100	–	100	100	90	100	–	–
C[C@H](NC(=O)c1cc(C#N)cc(OC(F)(F)F)c1)c1ncnn1-c1cc(C#N)ncn1 [I-38]	90	–	–	100	100	100	100	100	–
C[C@H](NC(=O)c1cc(OC(F)F)cc(C2CC2)c1)c1ncnn1-c1cc(C(N)=O)ncn1 [I-66]	90	–	90	100	100	100	100	–	–
CC(C)N(C)C(=O)c1cc(-n2ncnc2[C@H](C)NC(=O)c2cc(Cl)cc(OC(F)(F)F)c2)ncn1 [I-56]	100	100	90	100	100	–	100	–	–
CC(C)N(C)C(=O)c1cc(-n2ncnc2[C@H](C)NC(=O)c2cc(OC(F)F)cc(C3CC3)c2)ncn1 [I-68]	100	100	–	100	100	–	–	–	–
Cc1nc([C@H](C)NC(=O)c2cc(Cl)cc(Cl)c2)n(-c2cc(C(N)=O)ncn2)n1 [I-95]	100	100	90	100	100	100	100	–	–
C[C@H](NC(=O)c1cc(Cl)cc(OC(F)(F)F)c1)c1ncnn1-c1cc(C#N)ncn1 [I-18]	90	100	90	100	100	100	100	–	–
CNC(=O)c1cc(-n2nc(C)nc2[C@H](C)NC(=O)c2cc(Br)cc(Br)c2)ncn1 [I-52]	100	100	–	100	100	–	100	–	–
C[C@H](NC(=O)c1cc(Br)cc(Br)c1)c1ncnn1-c1cc(C#N)ncn1 [I-4]	–	100	–	100	100	–	100	–	80 to 100
